Laboratory results taken from ChEMBL document CHEMBL3102830, “Involvement of apoptosis and autophagy in the death of RPMI 8226 multiple myeloma cells by two enantiomeric sigma receptor ligands” (Bioorg Med Chem, 2014).
Calls of active or inactive are those of the source. The calls are words filed in the database; no cut-off is given here.

How the values were obtained:
RPMI-8226 [1] = experiment: Induction of apoptosis in human RPMI8226 cells assessed as early apoptotic cells at 36 uM after 48 hrs by annexin V-FITC/propidium iodide staining-based flow cytometric analysis; format: functional, cell-based
RPMI-8226 [2] = experiment: Selectivity ratio of Ki for sigma-2 receptor in human RT4 cell homogenates to Ki for sigma-1 receptor in human RPMI8226 cells; format: cell-based
RPMI-8226 [3] = experiment: Induction of apoptosis in human RPMI8226 cells at 36 uM after 48 hrs by annexin V-FITC/propidium iodide staining-based flow cytometric analysis in presence of caspase inhibitor z-VAD-FMK; format: functional, cell-based
[4] = target: Sigma non-opioid intracellular receptor 1 (Homo sapiens, UniProt Q99720); experiment: Displacement of [3H]-(+)-pentazocine from sigma-1 receptor in human RPMI8226 cells; format: cell-based, RPMI-8226
RPMI-8226 [5] = experiment: Induction of apoptosis in human RPMI8226 cells assessed as PARP-1 cleavage at 36 uM after 6 hrs by Western blotting analysis; format: functional, cell-based
RPMI-8226 [6] = experiment: Induction of apoptosis in human RPMI8226 cells assessed as early apoptotic cells at 36 uM after 48 hrs by annexin V/propidium iodide staining-based flow cytometric analysis; format: functional, cell-based
RPMI-8226 [7] = experiment: Induction of apoptosis in human RPMI8226 cells assessed as early apoptotic cells at 36 uM after 24 hrs by annexin V/propidium iodide staining-based flow cytometric analysis in presence of alpha-tocopherol; format: functional, cell-based
RPMI-8226 [8] = experiment: Induction of apoptosis in human RPMI8226 cells assessed as caspase-8 cleavage at 36 uM after 6 to 96 hrs by Western blotting analysis; format: functional, cell-based
RPMI-8226 [9] = experiment: Induction of apoptosis in human RPMI8226 cells assessed as early apoptotic cells at 36 uM after 48 hrs by annexin V-FITC/propidium iodide staining-based flow cytometric analysis in presence of wortmannin; format: functional, cell-based
RPMI-8226 [10] = experiment: Induction of autophagy in human RPMI8226 cells assessed as […] at 36 uM by Western blotting analysis; format: functional, cell-based; settings: TDE = time-dependent effect
RPMI-8226 [11] = experiment: Induction of apoptosis in human RPMI8226 cells assessed as caspase-9 activation at 36 uM by flow cytometric analysis in presence of […]; format: functional, cell-based; settings: TDE = time-dependent effect
RPMI-8226 [12] = experiment: Induction of apoptosis in human RPMI8226 cells assessed as dead cells at 36 uM after 48 hrs by annexin V-FITC/propidium iodide staining-based flow cytometric analysis relative to control; format: functional
RPMI-8226 [13] = experiment: Induction of apoptosis in human RPMI8226 cells assessed as dead cells at 36 uM after 48 hrs by annexin V-FITC/propidium iodide staining-based flow cytometric analysis in presence of apoptosis inhibitor 2,2'-methylenebis(1,3-cyclohexandione) relative to control; format: functional
[14] = target: Sigma non-opioid intracellular receptor 1 (Cavia porcellus, UniProt Q60492); experiment: Displacement of [3H]-(+)-pentazocine from sigma-1 receptor in guinea pig brain homogenates; format: tissue-based
[15] = Selectivity ratio of Ki for sigma-2 receptor in rat liver homogenates to Ki for sigma-1 receptor in guinea pig brain homogenates; format: tissue-based
RPMI-8226 [16] = experiment: Induction of apoptosis in human RPMI8226 cells assessed as increase in Bcl2 protein expression at 36 uM by Western blotting analysis; format: functional, cell-based; settings: TDE = time-dependent effect
RPMI-8226 [17] = experiment: Induction of apoptosis in human RPMI8226 cells at 36 uM after 6 hrs by annexin V-FITC/propidium iodide staining-based flow cytometric analysis; format: functional, cell-based
RPMI-8226 [18] = experiment: Induction of autophagy in human RPMI8226 cells assessed as p62 protein expression at 36 uM after 6 to 96 hrs by Western blotting analysis; format: functional, cell-based
RPMI-8226 [19] = experiment: Cytotoxicity against human RPMI8226 cells assessed as cell viability after 72 hrs by MTT assay; format: functional, cell-based
[20] = Displacement of [3H]-DTG from sigma-2 receptor in human RT4 cell homogenates in presence of (+)-pentazocine; format: tissue-based; settings: rt-4
RPMI-8226 [21] = experiment: Induction of apoptosis in human RPMI8226 cells assessed as chromatin condensation at 36 uM after 24 to 48 hrs by DAPI staining-based fluorescence microscopic analysis; format: functional, cell-based
RPMI-8226 [22] = experiment: Induction of apoptosis in human RPMI8226 cells assessed as early apoptotic cells at 36 uM after 24 hrs by annexin V/propidium iodide staining-based flow cytometric analysis; format: functional, cell-based
RPMI-8226 [23] = experiment: Induction of apoptosis in human RPMI8226 cells assessed as caspase-8 activation at 36 uM by flow cytometric analysis in presence of FITC-IETD-FMK; format: functional, cell-based; settings: TDE = time-dependent effect
RPMI-8226 [24] = experiment: Induction of apoptosis in human RPMI8226 cells assessed as caspase-3 activation at 36 uM by flow cytometric analysis in presence of […]; format: functional, cell-based; settings: TDE = time-dependent effect
[25] = Displacement of [3H]-DTG from sigma-2 receptor in rat liver homogenates in presence of (+)-pentazocine; format: tissue-based
HL-60 = experiment: Cytotoxicity against human HL60 cells assessed as cell viability at 20 uM after 72 hrs by MTT assay; format: functional, cell-based
RPMI-8226 [26] = experiment: Induction of apoptosis in human RPMI8226 cells assessed as increase in apoptotic cells at 36 uM after 24 to 48 hrs by annexin V-FITC/propidium iodide staining-based flow cytometric analysis; format: functional, cell-based
RPMI-8226 [27] = experiment: Induction of apoptosis in human RPMI8226 cells assessed as decrease in Bax protein expression at 36 uM by Western blotting analysis; format: functional, cell-based; settings: TDE = time-dependent effect
RPMI-8226 [28] = experiment: Induction of apoptosis in human RPMI8226 cells assessed as early/late apoptotic cells at 36 uM after 48 hrs by annexin V/propidium iodide staining-based flow cytometric analysis in presence of alpha-tocopherol; format: functional, cell-based
RPMI-8226 [29] = experiment: Induction of apoptosis in human RPMI8226 cells assessed as caspase-9 protein expression at 36 uM after 6 to 96 hrs by Western blotting analysis; format: functional, cell-based
RPMI-8226 [30] = experiment: Induction of apoptosis in human RPMI8226 cells assessed as decrease in Bid protein expression at 36 uM up to 96 hrs by Western blotting analysis; format: functional, cell-based
[31] = Binding affinity to sigma-2 receptor in rat liver homogenates; format: tissue-based

Sequence of Sigma non-opioid intracellular receptor 1 (Cavia porcellus, UniProt Q60492) (Q60492 whole entry): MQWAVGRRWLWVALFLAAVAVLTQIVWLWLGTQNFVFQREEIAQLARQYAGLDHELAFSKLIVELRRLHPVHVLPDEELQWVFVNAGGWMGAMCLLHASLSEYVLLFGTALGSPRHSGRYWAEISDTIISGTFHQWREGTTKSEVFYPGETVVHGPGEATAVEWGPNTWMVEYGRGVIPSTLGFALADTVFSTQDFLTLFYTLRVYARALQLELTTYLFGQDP
Sequence of Sigma non-opioid intracellular receptor 1 (Homo sapiens, UniProt Q99720) (Q99720 whole entry): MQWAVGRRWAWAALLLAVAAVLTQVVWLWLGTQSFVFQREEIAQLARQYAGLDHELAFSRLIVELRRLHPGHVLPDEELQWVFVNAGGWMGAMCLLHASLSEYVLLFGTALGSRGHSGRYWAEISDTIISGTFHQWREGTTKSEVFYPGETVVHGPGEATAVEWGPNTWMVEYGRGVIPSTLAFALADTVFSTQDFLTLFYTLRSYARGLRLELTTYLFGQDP

Compound: OCC[C@H]1CN(CC2CCCCC2)CCN1Cc1ccc(-c2ccccc2)cc1
- Activity (RPMI-8226 [1]): Active
- Ratio Ki (RPMI-8226 [2]): 1.3
- Activity (RPMI-8226 [3]): Active
- Ki [4]: 34 nM
- Activity (RPMI-8226 [5]): Active
- Activity (RPMI-8226 [6]): inactive
- Activity (RPMI-8226 [7]): Active
- Activity (RPMI-8226 [8]): Active
- Activity (RPMI-8226 [9]): Active
- Activity (RPMI-8226 [10]): tde
- Activity (RPMI-8226 [11]): tde
- Activity (RPMI-8226 [12]): 18%
- Activity (RPMI-8226 [13]): 21%
- Ki [14]: 3.5 nM
- Ratio Ki [15]: 20.8
- Activity (RPMI-8226 [16]): tde
- Activity (RPMI-8226 [17]): inactive
- Activity (RPMI-8226 [18]): inactive
- Activity (RPMI-8226 [19]): Dose-dependent effect
- IC50 (RPMI-8226 [19]; RPMI-8226, 72 h): 21300 nM
- Ki [20]: 43 nM
- Activity (RPMI-8226 [21]): Active
- Activity (RPMI-8226 [22]): Active
- Activity (RPMI-8226 [23]): tde
- Activity (RPMI-8226 [24]): tde
- Ki [25]: 73 nM
- Activity (HL-60): inactive
- Activity (RPMI-8226 [26]): Active
- Activity (RPMI-8226 [27]): tde
- Activity (RPMI-8226 [28]): inactive
- Activity (RPMI-8226 [29]): inactive
- Activity (RPMI-8226 [30]): inactive

Compound: COc1ccc(CN2CCN(Cc3ccccc3)[C@@H](CO)C2)cc1
- Ratio Ki [15]: 5.8
- Ki [31]: 70 nM

Compound: COc1ccc(CN2CCN(Cc3ccccc3)CC2)cc1
- Ki [25]: 161 nM
